{"source": "paper PMC5218480", "about": "(PLoS ONE, 2017)", "tested_on": "MV-4-11 cells", "test": "Gene expression microarray analysis (Affymetrix PrimeView) and GSEA", "format": "cell-based, human", "design": "RFU PODN (11730768_x_at) / Fold change /veh PODN (11730768_x_at) / RFU LINC00158 (11744669_a_at) / Fold change /veh LINC00158 (11744669_a_at) / RFU DUSP10 (11751237_a_at) / Fold change /veh DUSP10 (11751237_a_at) / RFU ID3 (11757404_x_at) / Fold change /veh ID3 (11757404_x_at) / RFU PLEKHG5 (11737974_s_at) / Fold change /veh PLEKHG5 (11737974_s_at) / RFU LRRC4B (11730491_at) / Fold change /veh LRRC4B (11730491_at) / RFU GIMAP4 (11747438_a_at) / Fold change /veh GIMAP4 (11747438_a_at) / RFU KRT8 (11758183_x_at) / Fold change /veh KRT8 (11758183_x_at) / RFU CNN1 (11734310_a_at) / Fold change /veh CNN1 (11734310_a_at) / RFU VPS37D (11726825_at) / Fold change /veh VPS37D (11726825_at) / RFU C10orf10 (11716522_x_at) / Fold change /veh C10orf10 (11716522_x_at) / RFU KIR2DL2 /// KIR2DL4 /// KIR2DL5A /// KIR2DL5B /// KIR2DS1 /// KIR2DS2 /// KIR2DS3 /// KIR2DS4 /// KIR3DL3 /// KIR3DL3 /// KIR3DS1 (11738374_at) / Fold change /veh KIR2DL2 /// KIR2DL4 /// KIR2DL5A /// KIR2DL5B /// KIR2DS1 /// KIR2DS2 /// KIR2DS3 /// KIR2DS4 /// KIR3DL3 /// KIR3DL3 /// KIR3DS1 (11738374_at) / RFU C1QL1 (11718748_at) / Fold change /veh C1QL1 (11718748_at) / RFU TMPRSS4 (11747572_a_at) / Fold change /veh TMPRSS4 (11747572_a_at) / RFU HAMP (11756126_x_at) / Fold change /veh HAMP (11756126_x_at) / RFU RNFT2 (11725882_a_at) / Fold change /veh RNFT2 (11725882_a_at) / RFU NR4A2 (11747474_a_at) / Fold change /veh NR4A2 (11747474_a_at) / RFU ABCC12 (11746883_a_at) / Fold change /veh ABCC12 (11746883_a_at) / RFU TMEM136 (11760407_x_at) / Fold change /veh TMEM136 (11760407_x_at) / RFU CLDN22 /// WWC2 (11732394_at) / Fold change /veh CLDN22 /// WWC2 (11732394_at) / RFU HLA-DPB1 (11760878_x_at) / Fold change /veh HLA-DPB1 (11760878_x_at) / RFU SPINT1 (11716480_a_at) / Fold change /veh SPINT1 (11716480_a_at) / RFU GAP43 (11754022_s_at) / Fold change /veh GAP43 (11754022_s_at) / RFU A4GNT (11735810_at) / Fold change /veh A4GNT (11735810_at) / RFU PRB3 (11715151_x_at) / Fold change /veh PRB3 (11715151_x_at) / RFU TUBB4B (11761932_at) / Fold change /veh TUBB4B (11761932_at) / RFU CAPN14 (11732068_a_at) / Fold change /veh CAPN14 (11732068_a_at) / RFU TMCC2 (11721928_a_at) / Fold change /veh TMCC2 (11721928_a_at) / RFU IRGQ (11745062_a_at) / Fold change /veh IRGQ (11745062_a_at) / RFU FAM174B (11720279_a_at) / Fold change /veh FAM174B (11720279_a_at) / RFU TMPRSS4 (11748680_a_at) / Fold change /veh TMPRSS4 (11748680_a_at) / RFU FAM212B (11763350_a_at) / Fold change /veh FAM212B (11763350_a_at) / RFU PLEKHG5 (11743358_a_at) / Fold change /veh PLEKHG5 (11743358_a_at) / RFU ZSCAN30 (11745921_a_at) / Fold change /veh ZSCAN30 (11745921_a_at) / RFU CMKLR1 (11741424_a_at) / Fold change /veh CMKLR1 (11741424_a_at) / RFU LOC101060620 /// MAPK8IP1 (11723275_at) / Fold change /veh LOC101060620 /// MAPK8IP1 (11723275_at) / RFU SPTSSB (11747773_x_at) / Fold change /veh SPTSSB (11747773_x_at) / RFU PRSS12 (11739890_at) / Fold change /veh PRSS12 (11739890_at) / RFU BIN1 (11741810_x_at) / Fold change /veh BIN1 (11741810_x_at) / RFU WNT11 (11732464_a_at) / Fold change /veh WNT11 (11732464_a_at) / RFU C10orf10 (11716521_a_at) / Fold change /veh C10orf10 (11716521_a_at) / RFU C5orf56 (11738089_at) / Fold change /veh C5orf56 (11738089_at) / RFU CYB561 (11721691_x_at) / Fold change /veh CYB561 (11721691_x_at) / RFU ANKRD19P (11752326_a_at) / Fold change /veh ANKRD19P (11752326_a_at) / RFU OR2T12 /// OR2T33 /// OR2T8 (11738714_s_at) / Fold change /veh OR2T12 /// OR2T33 /// OR2T8 (11738714_s_at) / RFU VCAN (11748164_a_at) / Fold change /veh VCAN (11748164_a_at) / RFU JSRP1 (11732532_at) / Fold change /veh JSRP1 (11732532_at) / RFU KRTAP10-11 (11738290_x_at) / Fold change /veh KRTAP10-11 (11738290_x_at) / RFU MYO3A (11730013_a_at) / Fold change /veh MYO3A (11730013_a_at) / RFU EBF3 (11725865_a_at) / Fold change /veh EBF3 (11725865_a_at) / RFU CAMK2N1 (11719241_x_at) / Fold change /veh CAMK2N1 (11719241_x_at) / RFU C5orf56 (11738088_a_at) / Fold change /veh C5orf56 (11738088_a_at) / RFU OLFML3 (11715873_a_at) / Fold change /veh OLFML3 (11715873_a_at) / RFU LOC100653217 /// NTM (11731650_a_at) / Fold change /veh LOC100653217 /// NTM (11731650_a_at) / RFU MAPK11 (11762145_a_at) / Fold change /veh MAPK11 (11762145_a_at) / RFU FIZ1 (11724087_x_at) / Fold change /veh FIZ1 (11724087_x_at) / RFU OASL (11726364_x_at) / Fold change /veh OASL (11726364_x_at) / RFU SOX15 (11748057_x_at) / Fold change /veh SOX15 (11748057_x_at) / RFU CD79A (11719716_a_at) / Fold change /veh CD79A (11719716_a_at) / RFU HIST1H1D (11736915_at) / Fold change /veh HIST1H1D (11736915_at) / RFU CASKIN2 (11723855_a_at) / Fold change /veh CASKIN2 (11723855_a_at) / RFU LOC730098 (11760151_x_at) / Fold change /veh LOC730098 (11760151_x_at) / RFU OR4N2 (11742367_at) / Fold change /veh OR4N2 (11742367_at) / RFU PRRT2 (11749266_a_at) / Fold change /veh PRRT2 (11749266_a_at) / RFU SNX32 (11753110_a_at) / Fold change /veh SNX32 (11753110_a_at) / RFU CDHR5 (11726645_a_at) / Fold change /veh CDHR5 (11726645_a_at) / RFU RCAN1 (11760418_a_at) / Fold change /veh RCAN1 (11760418_a_at) / RFU FAM167A (11723789_a_at) / Fold change /veh FAM167A (11723789_a_at) / RFU FAM26E (11764081_at) / Fold change /veh FAM26E (11764081_at) / RFU ISYNA1 (11749810_s_at) / Fold change /veh ISYNA1 (11749810_s_at) / RFU ACY1 (11761880_at) / Fold change /veh ACY1 (11761880_at) / RFU 11764098_at / Fold change /veh 11764098_at / RFU SAMD14 (11745864_x_at) / Fold change /veh SAMD14 (11745864_x_at) / RFU NPB (11741838_a_at) / Fold change /veh NPB (11741838_a_at) / RFU TMPRSS6 (11731388_a_at) / Fold change /veh TMPRSS6 (11731388_a_at) / RFU KRTAP10-2 (11738614_at) / Fold change /veh KRTAP10-2 (11738614_at) / RFU ARHGAP8 /// PRR5-ARHGAP8 (11727945_x_at) / Fold change /veh ARHGAP8 /// PRR5-ARHGAP8 (11727945_x_at) / RFU KRTAP5-7 /// NADSYN1 (11734609_at) / Fold change /veh KRTAP5-7 /// NADSYN1 (11734609_at) / RFU RASL12 (11751679_a_at) / Fold change /veh RASL12 (11751679_a_at) / RFU CDKN2B (11736163_a_at) / Fold change /veh CDKN2B (11736163_a_at) / RFU PRF1 (11729649_at) / Fold change /veh PRF1 (11729649_at) / RFU, ZNF638 /// ZNF638-IT1 / Fold change vs veh, ZNF638 /// ZNF638-IT1 / RFU, PANK3 / Fold change vs veh, PANK3 / RFU, SH3YL1 / Fold change vs veh, SH3YL1 / RFU, ZEB2 / Fold change vs veh, ZEB2 / RFU, NRIP1 / Fold change vs veh, NRIP1 / RFU, PTTG1IP / Fold change vs veh, PTTG1IP / RFU, CAPN2 / Fold change vs veh, CAPN2 / RFU, MED14 / Fold change vs veh, MED14 / RFU, SNORA58 / Fold change vs veh, SNORA58 / RFU, C1orf63 / Fold change vs veh, C1orf63 / RFU, LRRFIP1 / Fold change vs veh, LRRFIP1 / RFU, NDUFAF7 / Fold change vs veh, NDUFAF7 / RFU, SLC12A2 / Fold change vs veh, SLC12A2 / RFU, IBTK / Fold change vs veh, IBTK / RFU, ESF1 / Fold change vs veh, ESF1 / Fold change vs veh, TMEM50B / RFU, TAOK1 / Fold change vs veh, TAOK1 / RFU, ACBD3 / Fold change vs veh, ACBD3 / RFU, TMA16 / Fold change vs veh, TMA16 / RFU, RWDD3 / Fold change vs veh, RWDD3 / RFU, BCAT1 / Fold change vs veh, BCAT1 / RFU, EDEM3 / Fold change vs veh, EDEM3 / RFU, TMEM33 / Fold change vs veh, TMEM33 / RFU, WDR75 / Fold change vs veh, WDR75 / RFU, AHCTF1 / Fold change vs veh, AHCTF1 / RFU, TFRC / Fold change vs veh, TFRC / RFU, ZDHHC17 / Fold change vs veh, ZDHHC17 / RFU, NOM1 / Fold change vs veh, NOM1 / RFU, ARL8B / Fold change vs veh, ARL8B / RFU, ZBTB11 / Fold change vs veh, ZBTB11 / RFU, TAMM41 / Fold change vs veh, TAMM41 / RFU, KIAA1704 /// LOC100996395 / Fold change vs veh, KIAA1704 /// LOC100996395 / RFU, ING1 / Fold change vs veh, ING1 / RFU, TRMT61B / Fold change vs veh, TRMT61B / RFU, FUBP3 / Fold change vs veh, FUBP3 / RFU, TP53 / Fold change vs veh, TP53 / RFU, TNKS2 / Fold change vs veh, TNKS2 / RFU, ZFP14 / Fold change vs veh, ZFP14 / RFU, ACTR2 / Fold change vs veh, ACTR2 / RFU, PPP3R1 / Fold change vs veh, PPP3R1 / RFU, PIK3R1 / Fold change vs veh, PIK3R1 / RFU, HNRNPA1 / Fold change vs veh, HNRNPA1 / RFU, RNF170 / Fold change vs veh, RNF170 / RFU, ZNF28 / Fold change vs veh, ZNF28 / RFU, RNGTT / Fold change vs veh, RNGTT / RFU, OGT / Fold change vs veh, OGT / RFU, BRD1 / Fold change vs veh, BRD1 / RFU, MARS / Fold change vs veh, MARS / RFU, ZNF655 / Fold change vs veh, ZNF655 / RFU, FAHD1 / Fold change vs veh, FAHD1 / RFU, BDP1 / Fold change vs veh, BDP1 / RFU, LRRCC1 / Fold change vs veh, LRRCC1 / RFU, ARID1A / Fold change vs veh, ARID1A / RFU, ZNF146 / Fold change vs veh, ZNF146 / RFU, ZNF330 / Fold change vs veh, ZNF330 / RFU, GPN3 / Fold change vs veh, GPN3 / RFU, C9orf123 / Fold change vs veh, C9orf123 / RFU, N4BP2L2 / Fold change vs veh, N4BP2L2 / RFU, ARFIP1 / Fold change vs veh, ARFIP1 / RFU, FAM179B / Fold change vs veh, FAM179B / RFU, BCL10 / Fold change vs veh, BCL10 / RFU, UHRF1BP1L / Fold change vs veh, UHRF1BP1L / RFU, BET1 / Fold change vs veh, BET1 / RFU, CNOT2 / Fold change vs veh, CNOT2 / RFU, ZNF268 / Fold change vs veh, ZNF268 / Fold change vs veh, ZNF507 / RFU, DGCR2 / Fold change vs veh, DGCR2 / RFU, WDSUB1 / Fold change vs veh, WDSUB1 / Fold change vs veh, HSP90B1 /// MIR3652 / RFU, ADSS / Fold change vs veh, ADSS / RFU, GK / Fold change vs veh, GK / RFU, ZNF148 / Fold change vs veh, ZNF148 / RFU, TAF9 / Fold change vs veh, TAF9 / RFU, SLC1A5 / Fold change vs veh, SLC1A5 / RFU, SLMO2 / Fold change vs veh, SLMO2 / RFU, ABCC4 / Fold change vs veh, ABCC4 / RFU, LOC101060439 /// RAP1B / Fold change vs veh, LOC101060439 /// RAP1B / RFU, RFX7 / Fold change vs veh, RFX7 / RFU, GTPBP10 / Fold change vs veh, GTPBP10 / RFU, CNEP1R1 / Fold change vs veh, CNEP1R1 / RFU, BIVM-ERCC5 /// ERCC5 / Fold change vs veh, BIVM-ERCC5 /// ERCC5 / RFU, ILF3 / Fold change vs veh, ILF3 / RFU 11762660_at / Fold change /veh 11762660_at / RFU VCAN (11757783_s_at) / Fold change /veh VCAN (11757783_s_at) / RFU DDX43 (11728927_at) / Fold change /veh DDX43 (11728927_at) / RFU KRT8 (11758188_x_at) / Fold change /veh KRT8 (11758188_x_at) / RFU NKD1 (11759106_at) / Fold change /veh NKD1 (11759106_at) / RFU SRD5A1 (11742802_a_at) / Fold change /veh SRD5A1 (11742802_a_at) / RFU TPSAB1 /// TPSB2 (11721975_s_at) / Fold change /veh TPSAB1 /// TPSB2 (11721975_s_at) / RFU GSTM3 (11746129_a_at) / Fold change /veh GSTM3 (11746129_a_at) / RFU IL23R (11737362_x_at) / Fold change /veh IL23R (11737362_x_at) / RFU TMEM51 (11727254_a_at) / Fold change /veh TMEM51 (11727254_a_at) / RFU PIWIL2 (11732686_x_at) / Fold change /veh PIWIL2 (11732686_x_at) / RFU ORM1 (11744905_x_at) / Fold change /veh ORM1 (11744905_x_at) / RFU CCDC152 (11743942_at) / Fold change /veh CCDC152 (11743942_at) / RFU ECM1 (11717891_a_at) / Fold change /veh ECM1 (11717891_a_at) / RFU IL23R (11748794_a_at) / Fold change /veh IL23R (11748794_a_at) / RFU TNFAIP8L3 (11732012_x_at) / Fold change /veh TNFAIP8L3 (11732012_x_at) / RFU MBOAT4 (11741988_at) / Fold change /veh MBOAT4 (11741988_at) / RFU 11764193_at / Fold change /veh 11764193_at / RFU TMEM53 (11763286_at) / Fold change /veh TMEM53 (11763286_at) / RFU MAGEB2 (11727129_at) / Fold change /veh MAGEB2 (11727129_at) / RFU TMEM200A (11744735_a_at) / Fold change /veh TMEM200A (11744735_a_at) / RFU CCDC152 (11751479_a_at) / Fold change /veh CCDC152 (11751479_a_at) / RFU FAM211A (11726209_a_at) / Fold change /veh FAM211A (11726209_a_at) / RFU RGS16 (11746705_a_at) / Fold change /veh RGS16 (11746705_a_at) / RFU VCAN (11755009_s_at) / Fold change /veh VCAN (11755009_s_at) / RFU RHOB (11743442_s_at) / Fold change /veh RHOB (11743442_s_at) / RFU RGS16 (11720943_a_at) / Fold change /veh RGS16 (11720943_a_at) / RFU RGS16 (11720944_at) / Fold change /veh RGS16 (11720944_at) / RFU, VPS4B / Fold change vs veh, VPS4B / RFU, CREB1 / Fold change vs veh, CREB1 / RFU, DNAJC13 / Fold change vs veh, DNAJC13 / RFU, GNAQ / Fold change vs veh, GNAQ / RFU, CDK5R1 / Fold change vs veh, CDK5R1 / RFU, ZRANB3 / Fold change vs veh, ZRANB3 / RFU, CUL4A / Fold change vs veh, CUL4A / RFU, CCNY / Fold change vs veh, CCNY / RFU, UFL1 / Fold change vs veh, UFL1 / RFU, COG3 / Fold change vs veh, COG3 / RFU, DIAPH2 / Fold change vs veh, DIAPH2 / RFU, SKA2 / Fold change vs veh, SKA2 / RFU, AFF3 / Fold change vs veh, AFF3 / RFU, LMF1 / Fold change vs veh, LMF1 / RFU, IPO11 / Fold change vs veh, IPO11 / RFU, DFFB / Fold change vs veh, DFFB / RFU, FOXP1 / Fold change vs veh, FOXP1 / RFU, CARD8 / Fold change vs veh, CARD8 / RFU, STRN3 / Fold change vs veh, STRN3 / RFU, ADK / Fold change vs veh, ADK / RFU, RASSF2 / Fold change vs veh, RASSF2 / RFU, WIPF1 / Fold change vs veh, WIPF1 / RFU, LARP1B / Fold change vs veh, LARP1B / RFU, RASA1 / Fold change vs veh, RASA1 / RFU, RB1 / Fold change vs veh, RB1 / RFU, PPFIA1 / Fold change vs veh, PPFIA1 / RFU, MAT2A / Fold change vs veh, MAT2A / RFU, CCT5 / Fold change vs veh, CCT5 / RFU, WDR92 / Fold change vs veh, WDR92 / RFU, CUX1 / Fold change vs veh, CUX1 / RFU, TTC7A / Fold change vs veh, TTC7A / RFU, TMEM135 / Fold change vs veh, TMEM135 / RFU, DEPTOR / Fold change vs veh, DEPTOR / RFU, CPM / Fold change vs veh, CPM / RFU, DNAJB6 / Fold change vs veh, DNAJB6 / RFU, CACNA2D3 / Fold change vs veh, CACNA2D3 / RFU, DTX4 / Fold change vs veh, DTX4 / RFU, TFCP2 / Fold change vs veh, TFCP2 / RFU, GMCL1 /// GMCL1P1 / Fold change vs veh, GMCL1 /// GMCL1P1 / RFU, AEBP2 / Fold change vs veh, AEBP2 / RFU, SNHG1 /// SNORD22 /// SNORD25 /// SNORD26 /// SNORD27 /// SNORD28 /// SNORD29 /// SNORD31 / Fold change vs veh, SNHG1 /// SNORD22 /// SNORD25 /// SNORD26 /// SNORD27 /// SNORD28 /// SNORD29 /// SNORD31 / Fold change (Aza/veh), C12orf56 (ProbeSet 11735607_a_at) / Fold change (ACY-1035/veh), C12orf56 (ProbeSet 11735607_a_at) / Fold change (Aza/veh), FGFR1OP (ProbeSet 11751329_s_at) / Fold change (ACY-1035/veh), FGFR1OP (ProbeSet 11751329_s_at) / Fold change (Aza/veh), VPS36 (ProbeSet 11739960_a_at) / Fold change (ACY-1035/veh), VPS36 (ProbeSet 11739960_a_at) / RFU SYPL1 (11715823_x_at) / Fold change /veh SYPL1 (11715823_x_at) / RFU IGFBP7 (11715501_s_at) / Fold change /veh IGFBP7 (11715501_s_at) / RFU REEP3 (11722064_at) / Fold change /veh REEP3 (11722064_at) / RFU IGLL1 (11728026_x_at) / Fold change /veh IGLL1 (11728026_x_at): dose or concentration left out as unconfirmed", "details": "ProbeSet 11728314_at; LIST B"}
{"compound": "Nc1ccc(-c2cccs2)cc1NC(=O)c1ccc2c(c1)cc(C1CC1)n2CCN1CCOCC1", "note": "[ACY-1035]", "values": [{"measurement": "Fold change vs veh, ZNF148", "value": 0.92}]}
